Data reported in the supplement of paper PMC10307832.

Legend:
Experiment in all cases: relative viability (nuclei count vs DMSO), 5 days (fraction); higher = more cells survive
EHT 1864 + Phenformin = compound: C1COCCN1CC2=CC(=O)C(=CO2)OCCCCCSC3=C4C=CC(=CC4=NC=C3)C(F)(F)F [EHT 1864] + N=C(N)NC(=N)NCCc1ccccc1 [Phenformin] (partner 250 µM)
Procedure, shortened: (§1)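 Nuclei were stained with Hoechst during a one-step fixation (final 0.05% Triton X-100, 1% formaldehyde, 1 ug/ml Hoechst) carried out 5 days after dosing, then counted on 4× images. The cells, lung cancer lines in 1536-well plates, had been dosed by pin tool the day after seeding with one drug alone or a fixed anchor-drug dose plus five library-drug doses (not always all listed) in √10 steps. Relative viability is the nuclei count in treated wells divided by that in vehicle wells, and each value is the median of duplicate plates.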

EHT 1864 + OSI-027 = compound: C1COCCN1CC2=CC(=O)C(=CO2)OCCCCCSC3=C4C=CC(=CC4=NC=C3)C(F)(F)F [EHT 1864] + COc1cccc2cc(-c3nc([C@H]4CC[C@H](C(=O)O)CC4)n4ncnc(N)c34)[nH]c12 [OSI-027] (partner 0.5 µM)
Procedure, shortened: as §1

EHT 1864 + Trametinib = compound: C1COCCN1CC2=CC(=O)C(=CO2)OCCCCCSC3=C4C=CC(=CC4=NC=C3)C(F)(F)F [EHT 1864] + CC(=O)Nc1cccc(-n2c(=O)n(C3CC3)c(=O)c3c(Nc4ccc(I)cc4F)n(C)c(=O)c(C)c32)c1 [Trametinib] (partner 0.02 µM)
Procedure, shortened: as §1

EHT 1864 + Crizotinib = compound: C1COCCN1CC2=CC(=O)C(=CO2)OCCCCCSC3=C4C=CC(=CC4=NC=C3)C(F)(F)F [EHT 1864] + C[C@@H](Oc1cc(-c2cnn(C3CCNCC3)c2)cnc1N)c1c(Cl)ccc(F)c1Cl [Crizotinib] (partner 1 µM)
Procedure, shortened: as §1

Row | Cell Line | relative viability (EHT 1864 + Phenformin; first compound 0.04 µM) | relative viability (EHT 1864 + Phenformin; first compound 0.4 µM) | relative viability (EHT 1864 + Phenformin; first compound 1.265 µM) | relative viability (EHT 1864 + Phenformin; first compound 4 µM) | relative viability (EHT 1864 + OSI-027; first compound 0.04 µM) | relative viability (EHT 1864 + OSI-027; first compound 0.4 µM) | relative viability (EHT 1864 + OSI-027; first compound 1.265 µM) | relative viability (EHT 1864 + OSI-027; first compound 4 µM) | relative viability (EHT 1864 + Trametinib; first compound 0.04 µM) | relative viability (EHT 1864 + Trametinib; first compound 0.1265 µM) | relative viability (EHT 1864 + Trametinib; first compound 0.4 µM) | relative viability (EHT 1864 + Trametinib; first compound 1.265 µM) | relative viability (EHT 1864 + Trametinib; first compound 4 µM) | relative viability (EHT 1864 + Crizotinib; first compound 0.04 µM) | relative viability (EHT 1864 + Crizotinib; first compound 0.1265 µM) | relative viability (EHT 1864 + Crizotinib; first compound 0.4 µM) | relative viability (EHT 1864 + Crizotinib; first compound 1.265 µM) | relative viability (EHT 1864 + Crizotinib; first compound 4 µM) | relative viability (EHT 1864 + Phenformin; first compound 0.1265 µM) | relative viability (EHT 1864 + OSI-027; first compound 0.1265 µM)
1 | NCI-H2085 | 0.731 | 0.832 | 0.808 | 0.732 | 0.719 | 0.772 | 0.719 | 0.812 | 0.417 | 0.533 | 0.514 | 0.604 | 0.543 | 0.71 | 0.764 | 0.846 | 0.762 | 0.778 | – | –
2 | NCI-H2087 | 0.453 | 0.462 | 0.434 | 0.518 | 0.496 | 0.578 | 0.496 | 0.586 | 0.188 | – | 0.211 | 0.167 | 0.215 | 0.872 | 0.662 | 0.698 | 0.737 | 0.753 | – | –
3 | NCI-H2126 | 0.557 | 0.571 | 0.543 | 0.567 | 0.738 | 0.729 | 0.74 | 0.725 | 0.614 | 0.568 | 0.545 | 0.503 | 0.548 | 1.01 | 0.938 | 0.998 | 0.992 | 0.988 | 0.515 | 0.667
4 | NCI-H2170 | 0.442 | 0.392 | 0.368 | 0.37 | 0.787 | 0.803 | 0.795 | 0.702 | 0.893 | 0.779 | 0.911 | 0.886 | 0.911 | 1.15 | 1.17 | 1.2 | 1.18 | 1.21 | 0.349 | 0.582
5 | NCI-H2228 | 0.37 | 0.345 | 0.288 | 0.52 | 0.637 | 0.666 | 0.522 | 0.588 | 0.553 | 0.566 | 0.389 | – | 0.533 | 0.523 | 0.479 | 0.509 | 0.341 | 0.361 | 0.232 | 0.48
6 | NCI-H2347 | 0.585 | 0.478 | – | 0.46 | 0.389 | 0.442 | – | 0.396 | 0.222 | 0.281 | 0.251 | 0.276 | 0.463 | 0.693 | 0.518 | 0.715 | 0.709 | 0.868 | 0.432 | 0.369
7 | NCI-H2405 | 0.445 | 0.44 | 0.289 | 0.37 | 0.655 | 0.642 | 0.535 | 0.714 | 0.688 | 0.587 | 0.744 | 0.644 | 0.612 | 0.835 | 0.809 | 0.837 | 0.816 | 0.918 | 0.42 | 0.647
8 | NCI-H3122 | 0.415 | 0.362 | 0.345 | 0.304 | 0.922 | 0.952 | 0.896 | 0.956 | 0.219 | 0.288 | 0.248 | 0.202 | 0.219 | 0.327 | 0.278 | 0.276 | 0.315 | 0.245 | 0.373 | 0.594
